Experimental data as given in US9168259B2 (GRÜNENTHAL GMBH, priority 2010, dated 2015).

Target: T1, KCNQ2/3 channels (Homo sapiens, UniProt O43525+O43526)
T1 construct: expressed in transfected cells
Test: Fluorescence assay using a voltage sensitive dye (fluorimetry)
Type: cell-based
Details: CHO-K1 cells expressing KCNQ2/3; for Emax: CHO-K1, plateau effect relative to saturated retigabine (50 μM) = 100%, negative values = antagonistic, read-out: Fluorimetry % efficacy (retigabine = 100%); for EC50: IC50 where % efficacy is negative, read-out: Fluorimetry EC50/IC50

T1 sequence (O43526 whole entry): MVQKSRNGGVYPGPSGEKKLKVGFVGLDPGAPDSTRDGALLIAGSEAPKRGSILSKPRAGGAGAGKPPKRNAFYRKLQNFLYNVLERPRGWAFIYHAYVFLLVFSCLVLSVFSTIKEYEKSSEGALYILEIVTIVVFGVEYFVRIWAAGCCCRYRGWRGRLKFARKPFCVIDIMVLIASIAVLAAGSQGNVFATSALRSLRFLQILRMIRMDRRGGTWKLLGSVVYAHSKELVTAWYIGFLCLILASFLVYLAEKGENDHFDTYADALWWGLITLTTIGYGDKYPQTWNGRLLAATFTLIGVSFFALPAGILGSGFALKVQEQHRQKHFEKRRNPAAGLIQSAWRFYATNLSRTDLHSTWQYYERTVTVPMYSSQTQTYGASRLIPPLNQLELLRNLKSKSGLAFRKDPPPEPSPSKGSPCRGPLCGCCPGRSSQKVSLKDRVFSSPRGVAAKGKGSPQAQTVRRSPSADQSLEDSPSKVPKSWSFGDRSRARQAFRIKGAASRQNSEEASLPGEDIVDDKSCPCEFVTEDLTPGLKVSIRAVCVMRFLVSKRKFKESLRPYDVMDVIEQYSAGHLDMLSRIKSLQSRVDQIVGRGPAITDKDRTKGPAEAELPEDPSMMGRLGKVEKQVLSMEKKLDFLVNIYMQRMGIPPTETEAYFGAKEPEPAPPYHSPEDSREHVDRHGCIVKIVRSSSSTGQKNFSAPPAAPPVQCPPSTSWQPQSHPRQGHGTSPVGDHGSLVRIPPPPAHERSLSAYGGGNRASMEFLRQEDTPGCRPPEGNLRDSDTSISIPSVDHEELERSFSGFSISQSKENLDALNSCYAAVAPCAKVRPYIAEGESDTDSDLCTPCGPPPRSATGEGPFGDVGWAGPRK
T1 sequence (O43525 whole entry): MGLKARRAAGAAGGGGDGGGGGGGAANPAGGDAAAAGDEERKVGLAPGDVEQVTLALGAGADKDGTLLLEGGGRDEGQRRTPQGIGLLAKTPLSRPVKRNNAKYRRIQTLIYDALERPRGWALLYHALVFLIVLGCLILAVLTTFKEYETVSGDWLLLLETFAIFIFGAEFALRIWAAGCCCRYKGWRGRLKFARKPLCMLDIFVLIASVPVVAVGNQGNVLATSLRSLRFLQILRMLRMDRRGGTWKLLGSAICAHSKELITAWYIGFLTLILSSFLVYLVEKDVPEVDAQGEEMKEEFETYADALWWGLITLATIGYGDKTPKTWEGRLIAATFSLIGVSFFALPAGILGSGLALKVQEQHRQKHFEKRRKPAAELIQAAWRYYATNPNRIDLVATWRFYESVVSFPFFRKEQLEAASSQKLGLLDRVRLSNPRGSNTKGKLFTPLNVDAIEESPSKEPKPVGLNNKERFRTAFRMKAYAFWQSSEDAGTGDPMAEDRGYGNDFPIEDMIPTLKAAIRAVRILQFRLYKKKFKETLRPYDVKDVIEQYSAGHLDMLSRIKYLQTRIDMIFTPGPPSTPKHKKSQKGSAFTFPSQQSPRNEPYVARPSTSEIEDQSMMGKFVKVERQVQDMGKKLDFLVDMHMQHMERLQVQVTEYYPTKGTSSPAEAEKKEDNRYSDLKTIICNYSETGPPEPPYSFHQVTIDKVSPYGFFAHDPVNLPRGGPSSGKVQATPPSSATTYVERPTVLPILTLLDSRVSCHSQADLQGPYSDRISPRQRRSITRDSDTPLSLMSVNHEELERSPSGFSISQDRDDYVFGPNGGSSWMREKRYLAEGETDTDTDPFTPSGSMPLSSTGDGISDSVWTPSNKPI

| Compound | Emax [%] | EC50 [µM] |
| --- | --- | --- |
| CCSc1nc(N2CCOCC2)cc(C)c1C(=O)NCCCc1ccc(F)cc1 [Example 108, 2-Ethylsulfanyl-N-[3-(4-fluorophenyl)-propyl]-4-methyl-6-morpholin-4-yl-pyridine-3-carboxylic acid amide] | 203 | 0.317 |
| CCSc1nc(N2CCOCC2)cc(C)c1C(=O)NCCCc1ccccn1 [Example 109, 2-Ethylsulfanyl-4-methyl-6-morpholin-4-yl-N-(3-pyridin-2-yl-propyl)-pyridine-3-carboxylic acid amide] | 53 | – |
| CCCCOc1nc(N2CCOCC2)cc(C)c1C(=O)NCc1cccc(F)c1 [Example 110, 2-Butoxy-N-[(3-fluorophenyl)-methyl]-4-methyl-6-morpholin-4-yl-pyridine-3-carboxylic acid amide] | 163 | 0.071 |
| CCCOc1nc(N2CCOCC2)cc(C)c1C(=O)NCc1cccc(F)c1 [Example 111, N-[(3-Fluorophenyl)-methyl]-4-methyl-6-morpholin-4-yl-2-propoxy-pyridine-3-carboxylic acid amide] | 153 | 0.109 |
| CCSc1nc(N2CC(=O)C2)cc(C)c1C(=O)NCc1cccc(F)c1 [Example 112, 2-Ethylsulfanyl-N-[(3-fluorophenyl)-methyl]-4-methyl-6-(3-oxo-azetidin-1-yl)-pyridine-3-carboxylic acid amide] | 130 | 2.74 |
| CCSc1nc(N2CCOCC2)cc(C)c1C(=O)NCCCc1cccc(F)c1 [Example 113, 2-Ethylsulfanyl-N-[3-(3-fluorophenyl)-propyl]-4-methyl-6-morpholin-4-yl-pyridine-3-carboxylic acid amide] | 192 | 0.212 |
| CCSc1nc(N2CCOCC2)cc(C)c1C(=O)NCCCc1cccnc1 [Example 114, 2-Ethylsulfanyl-4-methyl-6-morpholin-4-yl-N-(3-pyridin-3-yl-propyl)-pyridine-3-carboxylic acid amide] | 126 | 9.38 |
| CCSc1nc(N2CCOCC2)cc(C)c1C(=O)NCCCc1ccncc1 [Example 115, 2-Ethylsulfanyl-4-methyl-6-morpholin-4-yl-N-(3-pyridin-4-yl-propyl)-pyridine-3-carboxylic acid amide] | 96 | 7.97 |
| CCSc1nc(N2CCOCC2)cc(C)c1C(=O)NCCCCC(C)(C)C [Example 116, N-(5,5-Dimethyl-hexyl)-2-ethylsulfanyl-4-methyl-6-morpholin-4-yl-pyridine-3-carboxylic acid amide] | 210 | 0.131 |
| COc1nc(N2CCOCC2)cc(C)c1C(=O)NCc1ccc(C(F)(F)F)cc1 [Example 117, 2-Methoxy-4-methyl-6-morpholin-4-yl-N-[[4-(trifluoromethyl)-phenyl]-methyl]pyridine-3-carboxylic acid amide] | 128 | 0.268 |
| CCSc1nc(N(C)Cc2ccncc2)cc(C)c1C(=O)NCc1cccc(F)c1 [Example 118, 2-Ethylsulfanyl-N-[(3-fluorophenyl)-methyl]-4-methyl-6-[methyl-(pyridin-4-yl-methyl)-amino]-pyridine-3-carboxylic acid amide] | 3 | – |
| CCSc1nc(N(C)Cc2cccnc2)cc(C)c1C(=O)NCc1cccc(F)c1 [Example 119, 2-Ethylsulfanyl-N-[(3-fluorophenyl)-methyl]-4-methyl-6-[methyl-(pyridin-3-yl-methyl)-amino]-pyridine-3-carboxylic acid amide] | 91 | 2.42 |
| CCSc1nc(N(C)C(=O)c2ccc(F)cc2)cc(C)c1C(=O)NCc1cccc(F)c1 [Example 120, 2-Ethylsulfanyl-6-[(4-fluoro-benzoyl)-methyl-amino]-N-[(3-fluorophenyl)-methyl]-4-methyl-pyridine-3-carboxylic acid amide] | 10 | – |

Next, values leading:

| Emax [%] | EC50 [µM] | Compound |
| --- | --- | --- |
| 35 | – | CCSc1nc(N(C)Cc2ccccn2)cc(C)c1C(=O)NCc1cccc(F)c1 [Example 121, 2-Ethylsulfanyl-N-[(3-fluorophenyl)-methyl]-4-methyl-6-[methyl-(pyridin-2-yl-methyl)-amino]-pyridine-3-carboxylic acid amide] |
| 67 | – | CCSc1nc(N(C)C(C)=O)cc(C)c1C(=O)NCc1cccc(F)c1 [Example 123, 6-(Acetyl-methyl-amino)-2-ethylsulfanyl-N-[(3-fluorophenyl)-methyl]-4-methyl-pyridine-3-carboxylic acid amide] |
| 149 | 0.082 | CCSc1nc(N2CCOCC2)cc(C)c1C(=O)NCc1ccc(Cl)cc1 [Example 124, N-[(4-Chlorophenyl)-methyl]-2-ethylsulfanyl-4-methyl-6-morpholin-4-yl-pyridine-3-carboxylic acid amide] |
| 152 | 0.087 | CCSc1nc(N2CCOCC2)cc(C)c1C(=O)NCc1cccc(Cl)c1 [Example 125, N-[(3-Chlorophenyl)-methyl]-2-ethylsulfanyl-4-methyl-6-morpholin-4-yl-pyridine-3-carboxylic acid amide] |
| 145 | 2.09 | CCSc1nc(N(CCOC)CCOC)cc(C)c1C(=O)NCc1cccc(F)c1 [Example 126, 6-[Bis(2-methoxy-ethyl)-amino]-2-ethylsulfanyl-N-[(3-fluorophenyl)-methyl]-4-methyl-pyridine-3-carboxylic acid amide] |
| 238 | 0.385 | CCN(C)c1nc(N2CCOCC2)cc(C)c1C(=O)NCc1cccc(F)c1 [Example 127, 2-(Ethyl-methyl-amino)-N-[(3-fluorophenyl)-methyl]-4-methyl-6-morpholin-4-yl-pyridine-3-carboxylic acid amide] |
| 142 | 0.785 | CCSc1nc(N(C)CCCOC)cc(C)c1C(=O)NCc1cccc(F)c1 [Example 128, 2-Ethylsulfanyl-N-[(3-fluorophenyl)-methyl]-6-(3-methoxy-propyl-methyl-amino)-4-methyl-pyridine-3-carboxylic acid amide] |
| 206 | 0.221 | CCSc1nc(N2CCOCC2)cc(C)c1C(=O)NCCCc1ccccc1F [Example 129, 2-Ethylsulfanyl-N-[3-(2-fluorophenyl)-propyl]-4-methyl-6-morpholin-4-yl-pyridine-3-carboxylic acid amide] |
| 148 | 0.074 | CCSc1nc(N2CCOCC2)cc(C)c1C(=O)NCc1cccc(OC(F)(F)F)c1 [Example 130, 2-Ethylsulfanyl-4-methyl-6-morpholin-4-yl-N-[[3-(trifluoromethyloxy)-phenyl]methyl]-pyridine-3-carboxylic acid amide] |
| 137 | 1.25 | CCSc1nc(N2CCOCC2)cc(C)c1C(=O)NCc1cccc(COC)c1 [Example 131, 2-Ethylsulfanyl-N-[[3-(methoxymethyl)-phenyl]-methyl]-4-methyl-6-morpholin-4-yl-pyridine-3-carboxylic acid amide] |
| 122 | 0.11 | CCOc1nc(N2CCOCC2)cc(C)c1C(=O)NCc1ccc(C(F)(F)F)cc1 [Example 132, 2-Ethoxy-4-methyl-6-morpholin-4-yl-N-[[4-(trifluoromethyl)-phenyl]-methyl]pyridine-3-carboxylic acid amide] |
| 235 | 0.392 | CCOc1nc(N2CCOCC2)cc(C)c1C(=O)NCCCC(F)(F)F [Example 133, 2-Ethoxy-4-methyl-6-morpholin-4-yl-N-(4,4,4-trifluoro-butyl)-pyridine-3-carboxylic acid amide] |
| 159 | 1.14 | CCSc1nc(N2CCOCC2)cc(C)c1C(=O)NCc1ccc2c(c1)OCO2 [Example 134, N-(1,3-Benzodioxol-5-yl-methyl)-2-ethylsulfanyl-4-methyl-6-morpholin-4-yl-pyridine-3-carboxylic acid amide] |
| 43 | 0.054 | CCSc1nc(N2CCOCC2)cc(C)c1C(=O)NCc1ccc(C(F)(F)F)cc1F [Example 135, 2-Ethylsulfanyl-N-[[2-fluoro-4-(trifluoromethyl)-phenyl]-methyl]-4-methyl-6-morpholin-4-yl-pyridine-3-carboxylic acid amide] |
| 171 | 0.108 | CCSc1nc(N2CCCCCC2)cc(C)c1C(=O)NCc1cccc(F)c1 [Example 136, 6-(Azepan-1-yl)-2-ethylsulfanyl-N-[(3-fluorophenyl)-methyl]-4-methyl-pyridine-3-carboxylic acid amide] |
| 151 | 1.07 | CCSc1nc(N2CCOCC2)cc(C)c1C(=O)NCc1ccc(OC)cc1 [Example 137, 2-Ethylsulfanyl-N-[(4-methoxyphenyl)-methyl]-4-methyl-6-morpholin-4-yl-pyridine-3-carboxylic acid amide] |
| 125 | 0.17 | CCSc1nc(N2CCO[C@@H](C)C2)cc(C)c1C(=O)NCc1cccc(F)c1 [Example 138, 2-Ethylsulfanyl-N-[(3-fluorophenyl)-methyl]-4-methyl-6-[(2S)-2-methyl-morpholin-4-yl]-pyridine-3-carboxylic acid amide] |
| 146 | 0.77 | CCSc1nc(N2CCO[C@H](C)C2)cc(C)c1C(=O)NCc1cccc(F)c1 [Example 139, 2-Ethylsulfanyl-N-[(3-fluorophenyl)-methyl]-4-methyl-6-[(2R)-2-methyl-morpholin-4-yl]-pyridine-3-carboxylic acid amide] |
| 227 | 1.12 | COc1nc(N2CCOCC2)cc(C)c1C(=O)NCCCC(F)(F)F [Example 140, 2-Methoxy-4-methyl-6-morpholin-4-yl-N-(4,4,4-trifluoro-butyl)-pyridine-3-carboxylic acid amide] |
| 167 | 0.242 | CCSc1nc(N2CCOCC2)cc(C)c1C(=O)NCCCC1CC1 [Example 141, N-(3-Cyclopropyl-propyl)-2-ethylsulfanyl-4-methyl-6-morpholin-4-yl-pyridine-3-carboxylic acid amide] |
